Laboratory results as given in patent US20240024301A1, “METHODS OF TREATING HEAD AND NECK SQUAMOUS CELL CARCINOMA” (Kura Oncology, Inc., priority 2022, published 2024).

Tests used:
[1] = test system: CAL33 xenograft tumors; assay: Immunohistochemistry of CAL33 CDX tumor samples; type: in vivo, mice; conditions: alpelisib 40 mg/kg QD, tipifarnib 60 mg/kg BID, or the combination, 10 days
Procedure: CAL33 xenograft tumors treated with alpelisib (40 mg/kg QD), tipifarnib (60 mg/kg BID), or the combination, for 10 days were subjected to immunohistochemistry analysis to assess levels of cell proliferation and apoptosis.
Fixation of tumor samples was performed by zinc formalin (Z-Fix, Anatech) and tissues were paraffin-embedded; samples were sectioned into 5 μm sections. Samples were deparaffinized, hydrated with graded ethanols, and the endogenous peroxidase was blocked with 3% H2O2 in 70% ethanol. After washing with distilled water, antigen retrieval was performed with IHC antigen retrieval solution (ThermoFisher Scientific, #00-4955-58) in a microwave at the high setting. Slides were then washed with water and PBS, and incubated with the primary and secondary antibodies, and developed with the ABC reagent (Vector Laboratories, #PK-6100) and the DAB substrate kit (Vector Laboratories, #SK-4105). The following antibodies were used: Cleaved PARP (Cell Signaling Technology #9661, 1:400 dilution) and Ki67 (DACO #M7240, 1:50). Percent positive cells in three fields per slide were counted using a microscope.

[2] = test system: PIK3CA-mutant CAL33 cells; assay: Immunoblots of MAPK/PI3K pathway components and apoptotic markers; type: cell-based; conditions: alpelisib 0, 1, 2, 6, 24 hours, absence or presence of tipifarnib (48-hour treatment)
Procedure: (§1) Immunoblots of MAPK/PI3K pathway components and apoptotic markers in PIK3CA-mutant CAL33 cells treated with alpelisib (BYL-719) for 0, 1, 2, 6, and 24 hours in the absence or presence of tipifarnib (48-hour treatment) are shown in FIG. 2A. A shift in Rheb and HRas protein mobility is indicative of defarnesylation. Generally, immunoblotting was performed as follows: Cell lysates were prepared on ice by washing cells once with PBS, resuspending in 1× cell lysis buffer (Cell Signaling Technology #9803) or RIPA buffer supplemented with Halt protease inhibitor cocktail (Thermo Scientific #78430) and briefly sonicated or vortexed. Lysates were cleared by centrifugation (maximum speed, 10 min) and protein concentration was determined by BCA assay (Pierce). Lysate (20-60 μg) was loaded onto 4-12% Bis-Tris gels (NuPAGE, Invitrogen) for electrophoresis and immunoblotting. When RAS was evaluated, active RAS was detected using Thermo Scientific kit #16117. Membrane and cytosolic fractions were isolated using the Mem-PER Plus Membrane Protein Extraction Kit (Thermo Scientific kit #89842).
However, by 24 hours, phosphorylation of these proteins partially or completely rebounded. […]

[3] = test system: BICR22 cells; assay: as above; type: cell-based; conditions: BICR22 (PIK3CA copy gain); alpelisib 0, 1, 24 hours, absence or presence of tipifarnib (48-hour treatment)
Procedure: as §1
(§2) Immunoblots of MAPK/PI3K pathway components and apoptotic markers in high HRas protein (i.e., overexpression of wild-type HRas protein) HNSCC cell line SCC9 cells and in PIK3CA copy gain (amplified) BICR22 cells are shown in FIG. 2B and FIG. 2D, respectively. […]

[4] = test system: SCC9 cells; assay: as above; type: cell-based; conditions: SCC9 (HRas high); alpelisib 0, 1, 24 hours, absence or presence of tipifarnib (48-hour treatment)
Procedure: as §1, §2

[5] = test system: PIK3CA-mutant CAL33 tumors; assay: Immunoblot and immunohistochemistry of treated CAL33 xenograft tumors; type: in vivo, athymic mice; conditions: tipifarnib 60 mg/kg BID, 10 days
Procedure: To assess the underlying mechanism of tumor regression, the PIK3CA-mutant CAL33 tumors were treated with tipifarnib (60 mg/kg BID), alpelisib (40 mg/kg QD), or the combination for 10 days. On day 10, tumors were collected from all cohorts at 2 and 24 hours after the final dose of alpelisib for immunohistochemistry and immunoblot analysis. […] Addition of tipifarnib blocked this rebound and promoted cell cycle arrest as indicated by decreased Rb phosphorylation.

[6] = test system: HSC2 (H1047R); assay: PI3K-mTOR signaling by immunoblot; type: cell-based; conditions: 1 h and 24 h
Procedure: PI3K-mTOR Signaling in PIK3CA-mutant HSC2 Cell Line. The PIK3CA-mutant HNSCC cell line HSC2 (H1047R) was treated with the tipifarnib-alpelisib combination and mTOR activity was assessed by immunoblot.

[7] = test system: cell lines harboring PIK3CA mutation or amplification; assay: Growth of PIK3CA-altered HNSCC cell lines, monolayer and spheroid cultures; type: cell-based
Procedure: (§3) Because a farnesyltransferase inhibitor may block hyperactivated growth factor signaling at multiple nodes, including HRas protein and Rheb protein, the impact of tipifarnib on the growth of PIK3CA-altered HNSCC models and HRAS-mutant HNSCC models in vitro and in vivo was examined. For tumor spheroid growth assays, cells were resuspended in 4% Matrigel and seeded in 96-well ultralow attachment plates at a density of 1-1.5K cells/well. The following day, spheroids were treated with alpelisib and/or tipifarnib and baseline growth measured using 3D Cell Titer Glo reagent (Promega). Spheroids were incubated with drug for 7 days and a final CTG reading taken. Percentage growth was calculated by[(Ti−Tz)/(C−Tz)]×100 for concentrations for which Ti>/=Tz and [(Ti−Tz)/Tz]×100 for concentrations for which Ti<Tz, where Tz=time zero, C=control growth, and Ti=test growth at each drug concentration. […] Consistently, in PIK3CA mutant/amplified PDX models, the tipifarnib-alpelisib doublet led to deeper antitumor responses compared to alpelisib monotherapy.

[8] = test system: Rheb protein; assay: Lysosome extraction by density gradient ultracentrifugation and immunoblot; type: cell-based; conditions: CAL33 cells, versus DMSO
Excerpt: Active Rheb protein is thought to localize to lysosomes to regulate mTOR activity. Density gradient ultracentrifugation was utilized to extract lysosomes from CAL33 cells treated with DMSO or tipifarnib. Lysosomes were lysed and subjected to immunoblot analysis alongside whole-cell lysate (WCL), FIG. 4. LAMP1 is a lysosome-specific marker and is used in this assay.

[9] = test system: HRAS and RHEB; assay: Subcellular fractionation and immunoblot of cytosol and membrane fractions; type: cell-based; conditions: CAL33, BICR22, and SCC9 cells; 1 μM tipifarnib (48 hr)
Procedure: as §1
CAL33, BICR22, and SCC9 cells were treated with DMSO, 250 nM alpelisib (24 hr), 1 μM tipifarnib (48 hr), or the combination.

[10] = test system: UM-SCC-17B (Q61L); assay: HRAS-mutant cell line spheroid growth, checkerboard, 7 days; type: cell-based
Procedure: as §3
Inhibition of HRAS-mutant cell line spheroid growth by tipifarnib and/or alpelisib. The HRAS-mutant HNSCC cell line UM-SCC-17B (Q61L) was cultured as 3D tumor spheroids and treated with tipifarnib and/or alpelisib in a checkerboard dose-response fashion for 7 days.

[11] = target: geranylgeranyltransferase type 1 (Homo sapiens, UniProt P53609); conditions: cited from earlier work

SMILES	Cleaved PARP (% positive cells) [1]	Ki67 (% positive cells) [1]	Pathway activity, cell cycle and apoptotic markers (immunoblot) [2]	Pathway activity, cell cycle and apoptotic markers (immunoblot) [3]	Pathway activity, cell cycle and apoptotic markers (immunoblot) [4]	mTOR activity (4EBP1, S6 phosphorylation) ([5]; alpelisib 40 mg/kg QD, tumors collected 2 and 24 hours after final alpelisib dose)	mTOR activity (phospho-S6K and S6) and PARP cleavage [6]	Proliferation / cytotoxicity [7]	Lysosomal localization of Rheb protein [8]	Farnesylation of HRAS and RHEB (immunoblot) [5]	Membrane localization of HRAS and RHEB [9]	Cytotoxicity in 3D tumor spheroids [10]	Inhibition of geranylgeranyltransferase type 1 [11]
Cc1nc(NC(=O)N2CCC[C@H]2C(N)=O)sc1-c1ccnc(C(C)(C)C(F)(F)F)c1 [Alpelisib, (2S)—N^1-[4-Methyl-5-[2-(2,2,2-trifluoro-1,1-dimethylethyl)-4-pyridinyl]-2-thiazolyl]-1,2-pyrrolidinedicarboxamide]	5.1 ± 0.4 % positive cells	53.7 ± 9.8 % positive cells	rapidly inhibited the activity of AKT, mTOR, and ERK	transiently reduced	transiently reduced	transiently inhibited mTOR activity	transiently inhibited	–	–	–	–	–	–
Cn1cncc1[C@@](N)(c1ccc(Cl)cc1)c1ccc2c(c1)c(-c1cccc(Cl)c1)cc(=O)n2C [Tipifarnib, (R)-6-[amino(4-chlorophenyl)(1-methyl-1H-imidazol-5-yl)methyl]-4-(3-chlorophenyl)-1-methyl-2(1H)-quinolinone]	4.9 ± 2.1 % positive cells	35.1 ± 8.1 % positive cells	–	–	–	–	–	reduced proliferation of both monolayer and spheroid cultures	markedly diminished the lysosomal localization of Rheb protein	resulted in defarnesylation of HRAS and RHEB	resulted in the membrane delocalization of the majority of HRAS and RHEB in all three cell types	induced cytotoxicity	not an inhibitor of geranylgeranyltransferase type 1
